# Measured values taken from US20070010527A1, “4-Anilino-3-quinolinecarbonitriles for the treatment of cancer” (priority 2005, published 2007).
# Experiments:
# [1] = test system: HN5 head and neck tumor line; assay: Phosphorylation of downstream proteins in EGF-stimulated HN5 cells; type: cell-based; details: serum-starved HN5 cells, compound 4 hours, then EGF 50 ng/ml ten minutes
# Description: FIG. 1. […] Serum-starved HN5 cells were treated with the compound for 4 hours, after which EGF was added to 50 ng/ml for ten minutes. Lysates were analyzed for Stat3 Y705, c-Cbl Y731 and Y774 and caveolin Y14 phosphorylation.
# PKA = molecular target: T1, PKA (Bos taurus, UniProt P00517); assay: PKA Scintiplate kinase assay; type: biochemical
# T1 construct: purchased Upstate 14-114
# Description: PKA, PKC, S6 kinase, CAMKII and p38 kinase assays.
# [2] = test system: A375 melanoma subcutaneous tumor xenografts; assay: A375 melanoma subcutaneous tumor xenograft in nude mice; type: in vivo; details: 30 mg/kg bid ip 9 days, day 12
# Description: All animal studies were conducted under an approved Institutional Animal Care and Use Committee protocol. Tumor cells were suspended to 50 million cells/ml and 0.2 ml of the cell suspension was injected subcutaneously into a flank of 6-7 weeks old female nude mice (Charles River, Wilmington, Mass.). Mice with tumors larger than 200 mm^3 after one week were administered vehicle or compound by intraperitoneal injection at the indicated doses in 0.2 ml of vehicle containing 0.5% methylcellulose and 0.4% polysorbate 80 (Tween 80).
# A375 melanoma cells [3] = assay: Proliferation assay, SRB; type: cell-based; details: Homo sapiens, A-375, 96 h, day 4
# Description: (§1) For the experiments described in Table 3, 1000 cells were plated in each well of a 96 well cell culture dish on day 0 in the standard growth medium for that particular cell line. Compound was added on day 1. Relative cell number was determined on day 4.
# (§2) The sulforhodamine B (SRB) assay was used for certain melanoma lines. In this assay, the serum concentration in the growth medium was 5% and culture medium volume was 0.2 ml. On day 4, 0.05 ml of 50% trichloroacetic acid was added to the medium and the plate was allowed to sit at room temperature for 1 hour. The medium was decanted and the plate was washed 3 times with water. The washed plates were dried, and then 0.08 ml of SRB reagent (SRB was obtained from Sigma; 0.4% SRB in 1% acetic acid) was added. After 10 minutes at room temperature, the plates were washed with 1% acetic acid until no free red color remained in solution. The bound SRB reagent was solubilized with 0.15 ml 10 mM Tris (no acid added). After agitating for 5 minutes on a shaker, the absorbance was read at 540 nm.
# RPMI-7951 melanoma cells = assay: Proliferation assay, SRB; type: cell-based; details: Homo sapiens, RPMI-7951, 96 h, day 4
# Description: as §1, §2
# HS-294-T melanoma cells = assay: Proliferation assay, SRB; type: cell-based; details: Homo sapiens, 96 h, day 4
# Description: as §1, §2
# [4] = test system: HSB-2 T-cell leukemia cells; assay: Proliferation assay, MTS; type: cell-based; details: HSB2, 96 h, day 4
# Description: as §1
# (§3) Some assays were monitored with the aid of the CellTiter 96 assay (Promega #G3580). With this assay, on day 4, detection reagent was added to the 96 well plate and absorbance at 490 nm was measured.
# [5] = test system: Molt-4 T-cell leukemia cells; assay: Proliferation assay, MTS; type: cell-based; details: Homo sapiens, MOLT-4, 96 h, day 4
# Description: as §1, §3
# CAMKII = CAMKII kinase ELISA; type: biochemical
# Description: Assay Dilution Buffer (ADB): 20 mM MOPS, pH 7.2, 25 mM β-glycerol phosphate, 5 mM EGTA, 1 mM sodium orthovanadate, 1 mM dithiothreitol. 2. […] 3. […] 4. […] 5. […] 3. […] 4. […] 5. […] 6. […] 7.
# A375 melanoma cells [6] = assay: Proliferation assay, CellTiter-Glo; type: cell-based; details: Homo sapiens, A-375, 96 h, Cell-glo, day 4
# Description: as §1
# (§4) The CellTiter-Glo luminescent cell viability assay (Promega #G7573) was used where cells were lysed with the CellTiter Glo reagent, agitated briefly and allowed to sit at room temperature for 30 minutes prior to analyzing on a Wallac plate reader equipped for luminescence readings.
# [7] = test system: MiaPaca pancreatic tumor cells; assay: Proliferation assay, CellTiter-Glo; type: cell-based; details: Homo sapiens, MIA PaCa-2, 96 h, Cell-glo, day 4
# Description: as §1, §4
# [8] = test system: BxPC3 pancreatic tumor cells; assay: Proliferation assay, CellTiter-Glo; type: cell-based; details: Homo sapiens, BXPC-3, 96 h, Cell-glo, day 4
# Description: as §1, §4
# [9] = test system: Capan pancreatic tumor cells; assay: Proliferation assay, CellTiter-Glo; type: cell-based; details: 96 h, Cell-glo, day 4
# Description: as §1, §4
# [10] = test system: DU145 prostate tumor cells; assay: Proliferation assay, CellTiter-Glo; type: cell-based; details: Homo sapiens, DU-145, 96 h, Cell-glo, day 4
# Description: as §1, §4
# [11] = test system: HN5 head and neck tumor cells; assay: Proliferation assay, CellTiter-Glo; type: cell-based; details: 96 h, Cell-glo, day 4
# Description: as §1, §4
# [12] = test system: LnCap prostate tumor cells; assay: Proliferation assay, CellTiter-Glo; type: cell-based; details: Homo sapiens, 96 h, Cell-glo, day 4
# Description: as §1, §4
smiles,measurement,setting,value
"COc1cc(Nc2c(C#N)cnc3cc(OCCCN4CCN(C)CC4)c(OC)cc23)c(Cl)cc1Cl [4-(2,4-dichloro-5-methoxy-phenylamino)-6-methoxy-7-[3-(4-methyl-piperazin-1-yl)-propoxy]-quinoline-3-carbonitrile]",phosphorylation of Y705 of Stat3,[1],reduced
same,phosphorylation of c-Cbl Y731,[1],reduced
same,phosphorylation of caveolin Y14,[1],reduced
same,IC50,PKA,5030 nM
same,T/C,[2],"39%, day 12"
same,IC50,A375 melanoma cells [3],900 nM
same,IC50,RPMI-7951 melanoma cells,1200 nM
same,IC50,HS-294-T melanoma cells,600 nM
same,IC50,[4],14 nM
same,IC50,[5],8200 nM
same,IC50,CAMKII,6250 nM
same,IC50,A375 melanoma cells [6],1200 nM
same,IC50,[7],1300 nM
same,IC50,[8],3900 nM
same,IC50,[9],5900 nM
same,IC50,[10],1600 nM
same,IC50,[11],300 nM
same,IC50,[12],3500 nM
